Experimental data reported in US20170182070A1, “Controlled Release Doxycycline” (Mayne Pharma International Pty Ltd., priority 2014, published 2017).
Where a name gives a salt, the structure may show the parent alone. Read-outs that look alike come from different tables or passages of the source. Blank lines part the entries; values can stand above or below the compound they belong to.

Assays:
[1] = cited from earlier work
[2] = Physicochemical properties of doxycycline forms
[3] = In vitro dissolution/release profile, USP <711> Apparatus 1 (baskets); assay type: physicochemical
Method: For the purposes of in vitro testing, a release or dissolution profile may be determined at pH 1.2 using a 0.06 N hydrochloric acid solution, at pH 4.5 using a phosphate buffer using USP <711> test conditions, and at pH 5.0 using a buffer using USP <711> test conditions. Such test conditions can be carried out according to USP <711> dissolution conditions using Apparatus 1 (baskets) in 900 mL of media with stirring at 50 RPM. The in vitro release of the pellets was tested using USP XXIV 2000—Apparatus 1 (baskets). See, e.g., Riaz Uddin, Nadia Saffoon, and Kumar Bishwajit Sutradhar, “Dissolution and Dissolution Apparatus: A Review,” Int. J. Cur. Biomed. Phar. Res., 2011, Vol. 1(4), pgs. 201-207. The acid environment dissolution profile of pellet A and B's formulation can be seen in FIG. 1. The dissolution profile of pellet A and B formulations at elevated pH can be seen in FIG. 2.

[4] = Population pharmacokinetic model of doxycycline plasma concentrations, pooled phase 1 data (Example 8); assay type: in vivo, human
Method: Pharmacokinetic data were available from eight phase 1 clinical trials conducted by Mayne Pharma International. These studies assessed doxycycline plasma concentrations following oral administration of either a 100 mg conventional release doxycycline hyclate capsule, a 75/100/150 or 200 mg Doryx® Delayed-Release tablet or a 120 mg Doryx MPC® Delayed-Release tablet in healthy subjects. For the remainder of the Specification's Example 8, conventional release doxycycline hyclate capsules will be referred to as Doryx capsules, the Doryx® Delayed-Release tablets will be referred to as Doryx tablets, and Doryx MPC® Delayed-Release tablets (formulation code MP336) will be referred to as Doryx MPC.
The available phase 1 clinical trials included six single dose two treatment period studies assessing the influence of formulation or the fed/fasted state on doxycycline concentrations. Two trials were multi-dose studies; with one a single treatment period study and the other a two treatment period study assessing doxycycline plasma concentrations following Doryx capsule or Doryx tablet administration. All studies were conducted in the United States. […] The design and dosing schedules are summarized in […].3. The available studies were assigned a local identifier during model development (10, 20, 30, 40, 50, 60, 70, and 80), as indicated in […].3, and will be referred to by these numbers for the remainder of the Specification.
Studies 10, 20, 30, 50, 60 and 80 were single-dose studies and plasma samples were acquired at nominal times approximate to 0, 0.25, 0.5, 1, 1.5, 2, 2.5, 3, 3.5, 4, 6, 8, 10, 12, 16, 24, 36, 48, 72 and 96 hours after the dose on day 1 of that period. Study 40 was a single treatment period multi-dose study, where participants were dosed 7 times at 24 hour intervals and plasma samples were collected at nominal times of 0, 0.25, 0.5, 1, 1.5, 2, 2.5, 3, 4, 6, 8, 10, 12, 16, 24, 144, 144.25, 144.5, 145, 145.5, 146, 146.5, 147, 148, 150, 152, 156, 160, 168, 180, 192, 216 and 240 hours after the dose on day 1. Study 70 was a two treatment period multi-dose study, where doses were given at 0, 72, 96, 120, 144 and 168 hours after the start of treatment, and plasma samples were collected at nominal times of 0, 0.25, 0.5, 1, 1.5, 2, 2.5, 3, 4, 6, 8, 10, 12, 16, 24, 36, 48, 72, 96, 120, 144, 168, 168.25, 168.5, 169, 169.5, 170, 170.5, 171, 172, 174, 176, 180, 184, 192, 204, 216 and 240 hours after the dose on day 1. Deviations between nominal sampling times and actual sample times were recorded, and the actual times were used during model development. Covariates describing fed status, formulation, sex, age, race, weight, body mass index (BMI), smoking status and study number were available for each individual.
Doxycycline plasma concentrations were measured using validated high performance liquid chromatographic methods, with the lower limits of quantification (LLOQ) of the assays indicated in […].3. All subjects with evaluable pharmacokinetic data were included in the analysis. All studies were conducted according to the International Conference of Harmonisation (ICH) guidelines for good clinical practice, the Declaration of Helsinki on the ethical conduct of medical research, and applicable regulatory requirements. Each subject signed and dated a written informed consent before study participation.
The base model was developed in a step-wise manner. Pharmacokinetic models were coded using the ADVAN5 subroutines of NONMEM. Linear kinetic models with 1, 2 and 3 compartments were evaluated, with absorption models including simple first-order absorption and “transit compartment” models with up to 5 absorption transit compartments assessed. The parameter KTR (transit absorption rate) was used to describe the first-order movement through these absorption compartments. The First Order Conditional Estimation (FOCE) method was used to fit models. […]

[5] = cited from earlier work; remark: listed apart in the source
Plasmodium falciparum = details: cited from earlier work

Structure (SMILES): CC1c2cccc(O)c2C(=O)C2=C(O)[C@]3(O)C(=O)C(C(N)=O)=C(O)[C@@H](N(C)C)[C@@H]3[C@@H](O)[C@@H]21 (stereo partly drawn) [Doxycycline hyclate, [4S(4aR,5S,5aR,6R,12aS)]-4-(dimethylamino)-1,4,4a,5,5a,6,11,12a-octahydro-3,5,10,12,12a-pentahydroxy-6-methyl-1,11-deoxonapthtacene-2-carboxamide monohydrochloride, compound with ethyl alcohol (2:1), monohydrate]
solubility [1]: soluble in water and in solutions of alkali hydroxides and carbonates

solubility ([2]; lower pH values (FIG. 5)): very soluble
solubility ([2]; pH above 3 (FIG. 5)): not very soluble
release rates overall ([3]; FIG. 5): low release rates overall
release ([3]; acidic conditions (FIG. 5)): releases readily
Structure (SMILES): C[C@H]1c2cccc(O)c2C(=O)C2=C(O)[C@]3(O)C(=O)C(C(N)=O)=C(O)[C@@H](N(C)C)[C@@H]3[C@@H](O)[C@@H]21 [doxycycline monohydrate salt]

CL, Clearance ([4]; final model parameter estimate): 4.63 L/h/70 kg FFM
CLP1, Intercompartmental clearance ([4]; final model parameter estimate): 11.3 L/h/70 kg FFM
KTR, Transit compartment rate constant ([4]; final model parameter estimate): 2 h⁻¹
V, Central distribution volume ([4]; final model parameter estimate): 55.2 L/70 kg FFM
VP1, Peripheral distribution volume ([4]; final model parameter estimate): 49.8 L/70 kg FFM
FTLAG2, lag on KTR (absorption) for the fed status ([4]; final model, formulation non-specific): 0.203 h
Fed-state decrease in relative bioavailability ([4]; human, plasma, oral, final model parameter estimate, read-out: COVFEDF, Effect of food on relative bioavailability): 10.5%
female sex increase in clearance ([4]; in vivo): 14.4%
fed status decrease in relative bioavailability (F) ([4]; irrespective of formulation): 10.5%
Structure (SMILES): C[C@H]1c2cccc(O)c2C(=O)C2=C(O)[C@]3(O)C(=O)C(C(N)=O)=C(O)[C@@H](N(C)C)[C@@H]3[C@@H](O)[C@@H]21 [doxycycline, (4S,4aR,5S,5aR,6R,12aS)-4-(dimethylamino)-3,5,10,12,12a-pentahydroxy-6-methyl-1,11-dioxo-1,4,4a,5,5a,6,11,12a-octahydrotetracene-2-carboxamide]
lipid solubility [1]: high degree of lipid solubility
peak serum level ([5]; 200 mg dose, at 2 hours, normal adult volunteers): 2.6 µg/mL
serum level ([5]; 200 mg dose, at 24 hours): 1450 ng/mL
absorption after oral administration ([5]; in vivo, po): virtually completely absorbed
half-life ([5]; in vivo): approximately 18 hours
excretion by the kidney ([5]; normal function (creatinine clearance about 75 mL/min)): about 40 %/72 hours
excretion by the kidney ([5]; severe renal insufficiency (creatinine clearance below 10 mL/min)): 1-5 %/72 hours
activity against asexual erythrocytic forms (Plasmodium falciparum): active
activity against gametocytes (Plasmodium falciparum): not against the gametocytes
